Measured values as given in patent US6716819B2, “Use of xylitol to reduce ionic strength and activate endogenous antimicrobials for prevention and treatment of infections” (University of Iowa Research Foundation, priority 2000, dated 2004).

How the values were obtained:
E. coli = assay: Bacterial killing by nasal lavage fluid, luminescence assay; assay type: cell-based; conditions: increasing xylitol concentration (serial dilutions of 300 mM), 4 hours at 30° C.
Description: FIG. 4. Effect of modifying ionic strength and xylitol concentration of killing of E. coli by nasal lavage liquid. Nasal lavage liquid was diluted with increasing concentrations of NaCl (bottom X-axis) or xylitol (top X-axis). SEM are smaller than the symbol.
Nasal lavage fluid was collected from normal volunteers. A flexible catheter (18-gauge; Jelco, Tampa, Fla.) was inserted into each nostril and the area flushed four times with 4 ml of sterile water. Cells were removed by centrifugation and the fluid was filtered with a sequential 0.8/0.2 μm Supor Acrodisc PF (GelamnSciences, Ann Arbor, Mich.). To study the effect of xylitol on bacterial killing by endogenous antimicrobial factors, a luminescence assay was used in which E. coli express the genes from Photorhabdus luminescens (Travis, S. M., B. A. D. Conway, J. Zabner, J. J. Smith, N. N. Anderson, P. K. Singh, E. P. Greenberg, and M. J. Welsh. 1999. Activity of Abundant Antimicrobials of the Human Airway. Am. J. Respir. Cell. Mol. Biol. 20:872-879). As previously described, this assay reports bacterial viability. Briefly, bacteria were grown to exponential phase at 30° C., centrifuged, and resuspended in 20 mM potassium phosphate with 2% Lauria-Bertani medium. […] After incubation at 30° C. for 4 hours, luminescence was measured with a luminometer (MLX Luminometer; Dynex Technologies Inc.; Chantilly, Va.). […]

[1] = in chewing gum, lozenges, or syrup; cited from earlier work
non-CF epithelia = assay: Liquid absorption by airway epithelia; assay type: cell-based, human; conditions: 60 μl saline/xylitol mixtures apical, 4 hours, increasing xylitol concentration
Description: (§1) FIG. 2. Effect of apical xylitol on rate of liquid absorption by non-CF and CF epithelia. Sixty μl of saline solution, xylitol solution, or indicated mixtures of the two were applied to the apical surface. Four hours later the solution was removed to measure rate of liquid absorption. A short incubation period was chosen to avoid secondary changes in the epithelium due to the large volume of apical liquid. Data are mean±SEM; n=15 from 3 different experiments. Some SEM bars are hidden by symbols.
(§2) Airway epithelial cells were isolated from tracheal and bronchial tissue. […] All epithelia were evaluated with scanning electron microscopy for the development of a ciliated apical surface.
(§3) Liquid absorption was measured using methods similar to those previously described (Smith, J. J., P. H. Karp, and M. J. Welsh. 1994. Defective fluid transport by cystic fibrosis airway epithelia. J. Clin. Invest. 93:1307-1311). […] After incubation for 4 hours, apical solutions were collected under mineral oil and their volume measured as previously described (Zabner, J., J. J. Smith, P. H. Karp, J. H. Widdicombe, and M. J. Welsh. 1998. Loss of CFTR chloride channels alters salt absorption by cystic fibrosis airway epithelia in vitro. Mol. Cell. 2:397-403; Smith, J. J., P. H. Karp, and M. J. Welsh. 1994. Defective fluid transport by cystic fibrosis airway epithelia. J. Clin. Invest. 93:1307-1311). […]

CF epithelia = assay: Liquid absorption by airway epithelia; assay type: cell-based, human; conditions: 60 μl saline/xylitol mixtures apical, 4 hours, increasing xylitol concentration
Description: as §1, §2, §3

OC[C@@H](O)[C@H](O)[C@@H](O)CO [xylitol]
killing of E. coli by nasal lavage fluid (E. coli): not affected
decrease in incidence of acute otitis media [1]: 20-40%
rate of liquid absorption (non-CF epithelia): reduced the rate of liquid absorption
rate of liquid absorption (CF epithelia): reduced the rate of liquid absorption
